Source: patent US20240308984A1, “Jak Inhibitor With High Oral Bioavailability” (TECHNODERMA MEDICINES INC, priority 2021, published 2024)
Like-named read-outs stand apart in the source and are kept apart here.

Test: Oral PK in rats, single oral dose, plasma concentration by LC-MS/MS
Type: in vivo, Sprague Dawley (SD) rats
Conditions: SD rats, single oral gavage 5 mg/kg, n=3; for Cmax: 1 mg/mL solution in DMA:30% Solutol HS 15:Saline 10:10:80, plasma; for AUC0-t: sampling up to 24 hours, plasma
Experimental: Biological Description of Oral PK in Rats:
In brief, the compounds were prepared in a solvent [DMA: 30% Solutol HS 15: Saline=10:10:80 (v/v/v)] to form clear solution formulations having a concentration of 1 mg/mL. Each test compound was administered to 3 rats (n=3) in single oral gavage (5 mg/kg). Approximately 150 μL of whole blood was taken from a subclavian vein of each experimental rat before administration and at 0.25, 0.5, 1, 2, 4, 8, 12, and 24 hours after administration, respectively, and was collected into an Eppendorf tube containing EDTA-K2, then 100 μL of the whole blood was added to an Eppendorf tube containing 300 μL of cyanomethane (ACN), mixed and then centrifuged to separate the plasma, and after it was ensured that there was no hemolysis in the samples, the plasma samples were stored in a freezer at −90° C. to −60° C. for analyses of drug concentrations in the samples via LC-MS/MS.
Concentrations of compounds in the plasma samples were tested and analyzed via LC-MS/MS system (API4000: LC-MS-MS-001), 10 μL of the sample was mixed with 100 μL of ACN containing a standard, then 110 μL of water was added and the mixture was oscillated, and finally, 2 μL of the mixed solution was injected into the LC-MS/MS system.

[1] = Sprague-Dawley, rat, read-out: Cmax
[2] = Sprague-Dawley, rat, read-out: AUC0-t

Work on `CCNC(=O)c1ccc(Nc2nccc(-c3ccc(NC(=O)[C@@H]4CC4(F)F)cc3)n2)cc1C` [Comparative Example 4] yielded a Cmax of 5.02 ng/mL and an AUC0-t of 30.7 ng·h/mL.
`Cn1cc(Nc2nccc(-c3ccc(N(COC(=O)C(C)(C)C)C(=O)[C@@H]4CC4(F)F)nc3)n2)cn1` [Example 1, (S)-(2,2-difluoro-N-(5-(2-(((1-methyl-1H-pyrazol-4-yl)amino)pyrimidin-4-yl)pyridin-2-yl)cyclopropane-1-carboxamido)methyl pivalate] showed an AUC0-t of 1670 ng·h/mL.
Work on `Cn1cc(Nc2nccc(-c3ccc(NS(=O)(=O)Cc4cccc(F)c4)cc3)n2)cn1` [Comparative Example 3] yielded an AUC0-t of 381 ng·h/mL.
`CCNC(=O)c1ccc(Nc2nccc(-c3ccc(N(COC(=O)C(C)(C)C)C(=O)C4CC4(F)F)cc3)n2)cc1C` (stereo not drawn) [Example 4] gave a Cmax [1] of 635 ng/mL and an AUC0-t [2] of 3090 ng·h/mL.
Work on `Cn1cc(Nc2nccc(-c3ccc(NC(=O)[C@@H]4CC4(F)F)nc3)n2)cn1` [Comparative Example 1, (S)-2,2-difluoro-N-(5-(2-((1-methyl-1H-pyrazol-4-yl)amino)pyrimidin-4-yl)pyridin-2-yl)cycloprop-ane-1-carboxamide] yielded a Cmax [1] of 116 ng/mL and an AUC0-t [2] of 891 ng·h/mL.
Compound `Cn1cc(Nc2nccc(-c3ccc(NS(=O)(=O)Cc4cccc(C#N)c4)cc3)n2)cn1` [Comparative Example 2] has a Cmax of 20.2 ng/mL and an AUC0-t of 47.4 ng·h/mL.
`CCNC(=O)c1ccc(Nc2nccc(-c3ccc(NC(=O)[C@@H]4CC4(F)F)cc3)n2)cc1` [Comparative Example 5] gave a Cmax of 16.5 ng/mL and an AUC0-t of 141 ng·h/mL.
Compound `Cn1cc(Nc2nccc(-c3ccc(N(COC(=O)C(C)(C)C)S(=O)(=O)Cc4cccc(F)c4)cc3)n2)cn1` [Example 3] has a Cmax [1] of 1860 ng/mL and an AUC0-t [2] of 2890 ng·h/mL.
Compound `CCNC(=O)c1ccc(Nc2nccc(-c3ccc(N(COC(=O)C(C)(C)C)C(=O)C4CC4(F)F)cc3)n2)cc1` (stereo not drawn) [Example 5] has a Cmax [1] of 689 ng/mL and an AUC0-t [2] of 2710 ng·h/mL.
Work on `Cn1cc(Nc2nccc(-c3ccc(N(COC(=O)C(C)(C)C)S(=O)(=O)Cc4cccc(C#N)c4)cc3)n2)cn1` [Example 2, (41-(3-cyanophenyl)-N-(4-(2-(((1-methyl-1H-pyrazol-4-yl)amino)pyrimidin-4-yl)phenyl)methyl)sulfonamido)methyl pivalate] yielded a Cmax [1] of 791 ng/mL and an AUC0-t [2] of 1580 ng·h/mL.
